From patent US10730868B2, “Bicyclic heteroaryl substituted compounds” (BRISTOL-MYERS SQUIBB COMPANY, priority 2016, dated 2020)

Biological target: PAR4 (Homo sapiens (Human), UniProt Q96RI0)
Test: PAR4 FLIPR assay (antagonism of agonist-peptide-induced calcium mobilization)
Format: cell-based
Details: H-Ala-Phe(4-F)-Pro-Gly-Trp-Leu-Val-Lys-Asn-Gly-NH2-induced intracellular calcium mobilization, PAR4-expressing HEK293 cells; read-out: PAR4 FLTPR assay (IC50)
Description: The Fluorometric Imaging Plate Reader (FLIPR) assay is an exemplary in vitro assay for measuring the activity of the PAR4 antagonists of the present invention. In this assay, intracellular calcium mobilization is induced in PAR4 expressing cells by a PAR4 agonist and calcium mobilization is monitored.
HEK293 cells stably expressing PAR4 were generated by a standard method of transfection of human PAR4 (F2R23) cDNA expression vector and selected based on PAR4 protein expression or mRNA expression. […] These cells also express endogenous PAR1 and can elicit calcium signal upon stimulation with PAR1 agonist peptide. Therefore, the same cells were also used to determine selectivity against PAR1 and agonist activity for both receptors. Cells from HEK293 PAR4 Clone 1.2A (BMS Arctic ID 383940) were propagated and used for calcium mobilization studies.
FLIPR-based calcium mobilization assay in HEK293 cells was used to measure PAR4 antagonism agonism, and selectivity against PAR1. The activity of the PAR4 antagonists of the present invention were tested in PAR4 expressing cells by monitoring H-Ala-Phe(4-F)-[…]NH2-induced intracellular calcium mobilization. Counter screens for agonist activity and PAR1 antagonist activity were also performed. Briefly, PAR/PAR4-expressing HEK293 cells were grown in DMEM (Life Technology, Grand Island, N.Y.) containing 10% heat-inactivated FBS, 1% Penicillin-Streptomycin, 10 μg/mL blasticidin, and 100 μg/mL Zeocin at 37° C. with 5% CO2. Cells were plated overnight prior to the experiment in a black 384-well Purecoat Amine clear bottom plate (Becton Dickinson Biosciences, San Jose, Calif.) at 10,000 cells/well in 30 μL growth medium and incubated in a humidified chamber at 37° C. with 5% CO2 overnight. Prior to compound addition, the cell medium was replaced with 40 μL of 1× calcium and magnesium-containing Hank's Balanced Saline Solution (HBSS) (with 20 mM HEPES) and 1:1000 diluted fluorescent calcium indicator (Codex Biosolutions, Gaithersburg, Md.). After a 30 minute incubation period at 37° C. and a further 30 minute incubation and equilibration period at room temperature, 20 μL test compound (diluted in 1×HBSS buffer) was added at various concentrations at 0.17% dimethyl sulfoxide (DMSO) final concentration. Changes in fluorescence intensity were measured using a Functional Drug Screening System (FDSS, Hamamatsu, Japan) to determine agonist activities. The cells were then incubated for 30 minutes at room temperature followed by addition of 20 μL of agonist peptide for antagonist activity measurement. […] Compound potency was derived from 11-point concentration-response curves.

Sequence of PAR4 (Q96RI0 18-385): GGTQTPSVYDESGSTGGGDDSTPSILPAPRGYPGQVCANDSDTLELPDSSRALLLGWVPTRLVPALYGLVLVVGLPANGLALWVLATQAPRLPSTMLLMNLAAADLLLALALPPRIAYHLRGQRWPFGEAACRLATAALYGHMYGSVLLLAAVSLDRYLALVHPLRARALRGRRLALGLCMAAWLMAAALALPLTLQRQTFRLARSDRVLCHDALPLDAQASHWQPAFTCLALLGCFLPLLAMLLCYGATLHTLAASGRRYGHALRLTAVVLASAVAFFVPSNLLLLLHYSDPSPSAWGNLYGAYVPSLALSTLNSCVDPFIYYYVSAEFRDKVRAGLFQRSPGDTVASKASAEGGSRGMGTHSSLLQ

| SMILES | IC50 |
| --- | --- |
| CNC(=O)c1ccc(NC(=O)O[C@@H]2CCC[C@@H]2Oc2cc3sc(-c4cc(C)cc5nc(OC)cnc45)nc3cc2F)cn1 [Example 48, (1R,2S)-2-((5-fluoro-2-(2-methoxy-7-methylquinoxalin-5-yl)benzo[d]thiazol-6-yl)oxy)cyclopentyl (6-(methylcarbamoyl)pyridin-3-yl)carbamate] | 2.4 nM |
| COc1cnc2c(-c3nc4cc(F)c(O[C@@H]5CC(F)(F)CC[C@@H]5OC(=O)Nc5cnc(C)nc5)cc4s3)cc(C)cc2n1 [Example 13] | 110 nM |
| COc1cnc2c(-c3nc4cc(F)c(O[C@H]5CC(F)(F)CC[C@H]5OC(=O)Nc5ccnnc5)cc4s3)cc(C)cc2n1 [Example 9] | 12 nM |
| COc1ccc(NC(=O)O[C@H]2CC[C@H]2Oc2cc3sc(-c4cc(C)cc5nc(OC)cnc45)nc3cc2F)cn1 [Example 72] | 1.1 nM |
| COc1ccc(NC(=O)O[C@@H]2CC[C@@H]2Oc2cc3sc(-c4cc(C)cc5nc(OC)cnc45)nc3cc2F)cn1 [Example 73] | 0.5 nM |
| COc1cnc2c(-c3nc4cc(F)c(O[C@H]5CCC[C@H]5OC(=O)NC(C)C)cc4s3)cc(C)cc2n1 [Example 29] | 12 nM |
| COc1cnc2c(-c3nc4cc(F)c(O[C@@H]5CC[C@@H]5OC(=O)Nc5cnc(OC[C@@H](C)O)nc5)cc4s3)cc(C)cc2n1 (stereo in doubt) [Example 62, cis-2-((5-fluoro-2-(2-methoxy-7-methylquinoxalin-5-yl)benzo[d]thiazol-6-yl)oxy)cyclobutyl (2-((R)-2-hydroxypropoxy)pyrimidin-5-yl)carbamate (Homochiral)] | 6.9 nM |
| COc1cnc2c(-c3nc4cc(F)c(O[C@H]5CCC[C@H]5OC(=O)Nc5cnc(C)nc5)cc4s3)cc(C)cc2n1 [Example 37] | 4 nM |
| COc1cnc2c(-c3nc4cc(F)c(O[C@H]5CCC[C@H]5OC(=O)Nc5ccc(C(=O)N(C)C)nc5)cc4s3)cc(C)cc2n1 [Example 50, (1R,2S)-2-((5-fluoro-2-(2-methoxy-7-methylquinoxalin-5-yl)benzo[d]thiazol-6-yl)oxy)cyclopentyl (6-(dimethylcarbamoyl)pyridin-3-yl)carbamate] | 3.4 nM |
| COc1cnc2c(-c3nc4cc(F)c(O[C@H]5CCC[C@H]5OC(=O)Nc5ccc(C#N)nc5)cc4s3)cc(C)cc2n1 [Example 36] | 2.4 nM |

Same assay, conditions: H-Ala-Phe(4-F)-[…]NH2-induced intracellular calcium mobilization, PAR4-expressing HEK293 cells; read-out: PAR4 FLTPR assay (IC50)

| SMILES | IC50 |
| --- | --- |
| COc1ccc(NC(=O)O[C@H]2CCCC[C@H]2Oc2cc3sc(-c4cc(C)cc5nc(OC)cnc45)nc3cc2F)cn1 (racemic) [Example 57, rac-cis-2-((5-fluoro-2-(2-methoxy-7-methylquinoxalin-5-yl)benzo[d]thiazol-6-yl)oxy) cyclohexyl (6-methoxypyridin-3-yl)carbamate] | 6.1 nM |
| COc1cnc2c(-c3nc4cc(F)c(O[C@@H]5CCCC[C@H]5OC(=O)Nc5cnc(C)nc5)cc4s3)cc(C)cc2n1 (racemic) [Example 54, rac-trans-2-((5-fluoro-2-(2-methoxy-7-methylquinoxalin-5-yl)benzo[d]thiazol-6-yl)oxy)cyclohexyl (2-methylpyrimidin-5-yl)carbamate] | 13 nM |
| COc1cnc2c(-c3nc4cc(F)c(O[C@@H]5CC(C)(C)C[C@@H]5OC(=O)Nc5cnc(C)nc5)cc4s3)cc(C)cc2n1 (single isomer, unassigned; enantiomer 2) [Example 85, (cis)-2-((5-fluoro-2-(2-methoxy-7-methylquinoxalin-5-yl)benzo[d]thiazol-6-yl)oxy)-4,4-dimethylcyclopentyl (2-methylpyrimidin-5-yl)carbamate Enantiomer 2] | 41 nM |
| COc1cnc2c(-c3nc4cc(F)c(O[C@@H]5CC[C@@H]5OC(=O)Nc5cnc(OCCO)nc5)cc4s3)cc(C)cc2n1 (racemic) [Example 71] | 1.6 nM |
| COc1cnc2c(-c3nc4cc(F)c(O[C@@H]5CC(C)(C)C[C@@H]5OC(=O)Nc5cnc(C)nc5)cc4s3)cc(C)cc2n1 (racemic) [Example 83] | 6.8 nM |
| COc1cnc2c(-c3nc4cc(F)c(O[C@@H]5CC[C@@H]5OC(=O)Nc5cnc(C)nc5)cc4s3)cc(Cl)cc2c1 (racemic) [Example 82] | 1.1 nM |
